# PMC4117522, “Proteasome Inhibitors Alter Levels of Intracellular Peptides in HEK293T and SH-SY5Y Cells” (PLoS ONE, 2014)
# Where two headings read alike, the source gives them in different places.
# Key:
# [1] = system: HEK293T cell aminopeptidase activity (Leu-AMC cleavage); test: Aminopeptidase assay with Leu-AMC in HEK293T cell extracts; format: biochemical, human; settings: HEK293T cell extract; for effect on cleavage of Leu-AMC: 10 µM inhibitor
# Protocol: (§1) All enzyme assays described below were performed in the linear range of the assay, as determined from time-course studies. HEK293T cells were lysed by sonication in 50 mM TrisHCl buffer, pH 7.5, containing 40 mM KCl, 5 mM MgCl2, 0.5 mM ATP, and 1 mM DTT (Buffer 1).
# (§2) To measure TPP2, the fluorescent substrate was Ala-Ala-Phe-AMC. Aminopeptidase (AP) assays were performed with Leu-AMC and Ala-AMC, which detect leucine aminopeptidase (LAP), puromycin-sensitive aminopeptidase (PSAP), and other enzymes. To measure the effect of aminopeptidase/proteasome inhibitors on cleavage of Ala-Ala-Phe-AMC and Leu-AMC, 1∶50 dilution of the cell extract was pre-incubated with the inhibitor and Buffer 1 for 30 min, followed by addition of 100 µM final concentration of the respective substrate. For Ala-AMC, the same dilution of the cell extract was pre-incubated with the inhibitor and 50 mM MOPS buffer, pH 7.5, containing 40 mM KCl, 5 mM MgCl2, 0.5 mM ATP, and 1 mM DTT (Buffer 2), followed by addition of 100 µM final concentration of the substrate. After incubation at 37°C for 1 hour, enzyme activity was quantified by fluorescence measurement of the substrate (380 nm excitation, 460 nm emission).
# (§3) Figure 7 Effect of aminopeptidase inhibitors on Ala-AMC and Leu-AMC cleavage. HEK 293T cell extract (panels A–D) or recombinant PSAP (panels E–F) were treated with increasing concentrations of bestatin or puromycin for 30 minutes followed by the addition of substrate and incubation for 1 hour. Enzyme activity was determined by fluorescence measurement of AMC and expressed as percentage enzyme activity relative to the control without inhibitor. (A) Bestatin inhibition of HEK293T cell extract assayed with Ala-AMC. (B) Bestatin inhibition of HEK293T cell extract assayed with Leu-AMC. (C) Puromycin inhibition of HEK293T cell extract assayed with Ala-AMC. (D) Puromycin inhibition of HEK293T cell extract assayed with Leu-AMC. (E) Puromycin inhibition of purified PSAP assayed with Ala-AMC. (F) Puromycin inhibition of purified PSAP assayed with Leu-AMC. Error bars show standard error of mean (n = 4), points without error bars had error ranges smaller than the symbol size. Statistical analysis was performed using Student’s t-test: *, p≤0.05; **, p≤0.01; ***, p≤0.001; ns, no significant difference (p>0.05) versus the control.
# (§4) Figure 8 Effect of proteasome inhibitors on Ala-AMC and Leu-AMC cleavage. HEK 293T cell extract or recombinant PSAP was treated with 10 µM of each of the proteasome inhibitors for 1 hour in addition to a 30 min pre-incubation without the substrate. Enzyme activity was determined by fluorescence measurement of AMC and expressed as percentage enzyme activity relative to the control without inhibitor. Panels A and B represent the effect of proteasome inhibitors on cleavage of Ala-AMC and Leu-AMC respectively, in HEK293T cell extract. […] Error bars show standard error of mean (n = 4). Statistical analysis was performed using Student’s t-test: *, p≤0.05; **, p≤0.01; ***, p≤0.001; ns, no significant difference (p>0.05) versus the control.
# [2] = target: T1, recombinant human puromycin-sensitive aminopeptidase (PSAP, rhNPEPPS) (Homo sapiens, UniProt P55786); test: Cleavage of Leu-AMC and Ala-AMC by purified recombinant PSAP; format: biochemical; settings: for effect on cleavage of Ala-AMC by purified PSAP: 10 µM inhibitor
# T1 construct: purchased R&D Systems
# T1 sequence (P55786 whole entry): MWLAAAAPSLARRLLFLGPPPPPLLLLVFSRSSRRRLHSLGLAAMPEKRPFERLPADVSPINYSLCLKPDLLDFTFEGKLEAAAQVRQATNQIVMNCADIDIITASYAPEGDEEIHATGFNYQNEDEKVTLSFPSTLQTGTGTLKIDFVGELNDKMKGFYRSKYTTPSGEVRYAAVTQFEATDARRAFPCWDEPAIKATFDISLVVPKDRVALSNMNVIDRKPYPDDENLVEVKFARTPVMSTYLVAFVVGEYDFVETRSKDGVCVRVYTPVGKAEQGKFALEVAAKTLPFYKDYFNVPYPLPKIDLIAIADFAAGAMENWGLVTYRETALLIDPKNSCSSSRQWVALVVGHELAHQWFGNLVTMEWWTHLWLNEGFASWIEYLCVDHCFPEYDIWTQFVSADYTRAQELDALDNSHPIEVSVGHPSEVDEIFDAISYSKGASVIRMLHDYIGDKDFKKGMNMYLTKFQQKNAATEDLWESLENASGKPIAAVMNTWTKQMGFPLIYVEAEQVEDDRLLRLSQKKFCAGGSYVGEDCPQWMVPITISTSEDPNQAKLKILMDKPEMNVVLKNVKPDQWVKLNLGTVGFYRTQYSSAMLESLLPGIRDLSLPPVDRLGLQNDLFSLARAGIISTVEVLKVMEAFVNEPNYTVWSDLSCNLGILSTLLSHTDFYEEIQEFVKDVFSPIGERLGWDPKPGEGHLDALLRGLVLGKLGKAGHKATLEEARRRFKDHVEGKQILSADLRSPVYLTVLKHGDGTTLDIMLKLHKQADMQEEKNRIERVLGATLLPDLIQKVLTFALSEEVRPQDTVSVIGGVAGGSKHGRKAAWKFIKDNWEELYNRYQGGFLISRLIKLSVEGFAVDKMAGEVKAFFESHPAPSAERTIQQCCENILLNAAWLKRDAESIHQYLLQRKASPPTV
# Protocol: To measure the effect of inhibitors on cleavage of Leu-AMC and Ala-AMC by purified PSAP, recombinant human PSAP (rhNPEPPS, R&D Systems) was diluted 1∶2000 in Buffer 2 containing 0.1 mg/ml BSA. The enzyme was pre-incubated with the inhibitor and Buffers 1 or 2, followed by addition of 100 µM final concentration of Leu-AMC (to the mix containing Buffer 1) and Ala-AMC (to the mix containing Buffer 2). After incubation at 37°C for 1 hour, PSAP activity was quantified by fluorescence measurement of the substrate (380 nm excitation, 460 nm emission).
# as §3, §4
# [3] = system: HEK293T cell aminopeptidase activity (Ala-AMC cleavage); test: Aminopeptidase assay with Ala-AMC in HEK293T cell extracts; format: biochemical, human; settings: HEK293T cell extract; for residual amount of activity: 50 µM; for effect on cleavage of Ala-AMC: 10 µM inhibitor
# Protocol: as §1, §2, §3, §4
# HEK293T cells [4] = test: Quantitative peptidomics (TMAB isotopic labels, LC-MS/MS) of inhibitor-treated HEK293T cells; format: cell-based, human; settings: HEK293T cells
# Protocol: (§5) HEK293T and SH-SY5Y cells were grown to 80–90% confluence in DMEM and RPMI supplemented with 10% fetal bovine serum and penicillin/streptomycin. A single plate of cells (150 mm×25 mm) was used for each group. At the start of the experiment, media were removed from the plates and cells were washed with DPBS (138 mM NaCl, 8.06 mM Na2HPO4, 2.67 mM KCl, 1.47 mM KH2PO4, 0.9 mM CaCl2 and 0.49 mM MgCl2). This was followed by addition of serum-free media containing the proteasome or aminopeptidase inhibitors, or 0.05% DMSO as a control for the inhibitors that were soluble in DMSO. Each experiment consisted of two control groups and two or three replicate groups of cells treated with one of the inhibitors. The cells were incubated at 37°C for 20 minutes, following which media containing the inhibitor was removed, cells were washed with DPBS, detached from the plate by scraping into DPBS (without trypsin), and centrifuged at 800×g for 5 min. The wash buffer was supplemented with the appropriate inhibitor at the same concentration as used for the treatment, thereby ensuring that the changes induced in peptide levels were not reversed during harvesting of cells due to possible dissociation of the reversible inhibitors. The wash time (including centrifugation) was 15 minutes, for a total treatment time of 35 minutes. After centrifugation, the cell pellet was resuspended in 1 ml of 80°C water and incubated in an 80°C water bath for 20 minutes to inactivate proteases. The mixture was again centrifuged (13,000×g, 30 min, 4°C) and was stored at −80°C overnight. For peptide extraction, the samples were thawed and centrifuged again. The lysate was subsequently cooled on ice and acidified with HCl to a final concentration of 10 mM. After 15 min incubation on ice, the lysate was centrifuged at 13,000×g for 30 min at 4°C. To the supernatant, 250 µL of dibasic sodium phosphate (0.4 M, pH 9.5) was added and the mixture was stored at −80°C until labeling.
# (§6) The labeling protocol has been earlier described in detail. Each group within an experiment (control/treated) was labeled with a different isotopic tag. The TMAB-NHS labels were dissolved in DMSO to a concentration of 400 µg/µL and 15 mg of label was used per 150 mm plate of cells. […] At the beginning, the pH of the peptide extract was adjusted to 9.5 with 1 M NaOH. Labeling was performed over 8 rounds; 4.69 µL of the label was added to the extract every 20 min. The pH was measured between each round and if necessary, brought back to 9.5 for the first five rounds. For rounds 6–8, the pH was not adjusted after the addition of the TMAB-NHS reagent. After the final round of label addition, the pH was adjusted to 9.5 again and the extracts were incubated at room temperature for 90 min. Thereafter, 30 µL of 2.5 M glycine was added to quench any unreacted label. Following 40 min incubation at room temperature, the labeled extracts for a single experiment were pooled and filtered through Amicon Ultracel-10 K units. It is important to ensure that only N-terminal amines and lysine side-chain amines of peptides are TMAB-labeled and not tyrosines. To hydrolyze any labeled tyrosine, 30 µL of a 2 M solution of hydroxylamine hydrochloride (pH 3.7) was added over three rounds to the pooled and filtered sample. The pH was measured after the addition of hydroxylamine and adjusted to 9.0 with 1 M NaOH. The samples were desalted through PepClean C-18 spin columns (Thermo Scientific, Rockford, IL, USA) by following manufacturer’s instructions. Peptides were eluted using 160 µL of 0.5% TFA and 70% acetonitrile, frozen at −80°C and then lyophilized in a vacuum centrifuge and stored at −80°C until analysis by mass spectrometry.
# (§7) The LC-MS/MS experiments were performed on a Synapt G2 mass spectrometer coupled to a NanoAcquity capillary liquid chromatography system (Waters Co., Milford, MA, USA).
# SH-SY5Y cells = test: Quantitative peptidomics (TMAB isotopic labels, LC-MS/MS) of inhibitor-treated SH-SY5Y cells; format: cell-based, human; settings: SH-SY5Y cells, 35 min; 2.5 µM MG132, 1 µM other inhibitors
# Protocol: as §5, §6, §7
# [5] = target: T2, proteasome (beta 5, chymotrypsin-like activity) in HEK293T cell extract (Homo sapiens, UniProt P20618+P28074); test: Proteasome activity in HEK293T cell extracts with beta 5-selective substrate Suc-Leu-Leu-Val-Tyr-AMC; format: biochemical; settings: Suc-Leu-Leu-Val-Tyr-AMC, 30 min pre-incubation, 1 hour, read-out: IC50, inhibition of proteasome activity
# T2 construct: endogenous in cells; host or cells: HEK293T
# Protocol: as §1
# To measure proteasome activity, a 1∶50 dilution of the cell extract was pre-incubated with the inhibitor and Buffer 1 for 30 min, followed by addition of 100 µM final concentration of the proteasome substrate succinyl-Leu-Leu-Val-Tyr-7-amino-4-methylcoumarin (Suc-Leu-Leu-Val-Tyr-AMC). After incubation at 37°C for 1 hour, proteasomal activity was quantified by fluorescence measurement of the substrate (380 nm excitation, 460 nm emission).
# Figure 2 Inhibition of proteasome activity in HEK293T cells with various proteasome inhibitors. HEK293T cell extract was treated with increasing concentrations of the indicated compound for […] and incubation for 1 hour […]. Enzyme activity was determined by fluorescence measurement of AMC. The resulting activity is expressed as percent enzyme activity relative to the control reaction without inhibitor.
# [6] = system: tripeptidyl peptidase 2 (TPP2); test: Ala-Ala-Phe-AMC cleavage (TPP2 substrate) in HEK293T cell extracts; format: biochemical, human; settings: HEK293T cell extract, micromolar concentrations
# Protocol: as §1, §2
# Enzyme activity was determined by fluorescence measurement of AMC and expressed as percentage enzyme activity relative to the control lacking inhibitor. […]
# HEK293T cells [7] = settings: cited from earlier work
# [8] = 35 min, 2.5 µM MG132, 1 µM other inhibitors
smiles,measurement,setting,value
COc1ccc(C[C@H](N)C(=O)N[C@H]2[C@@H](O)[C@H](n3cnc4c(N(C)C)ncnc43)O[C@@H]2CO)cc1 [puromycin],inhibition of Leu-AMC cleavage,[1],> 80%
same,potency on purified PSAP versus HEK293T cell extract,[2]; Ala-AMC and Leu-AMC,comparable
same,inhibition of Ala-AMC cleavage,[3],> 80%
same,residual amount of activity,[3],~20%
CC(C)C[C@H](NC(=O)[C@@H](O)[C@H](N)Cc1ccccc1)C(=O)O [bestatin],inhibition of Leu-AMC cleavage,[1],> 80%
same,inhibition of Ala-AMC cleavage,[3],> 80%
same,residual amount of activity,[3],~20%
same,Enzyme activity (% control with no inhibitor),"[3]; Ala-AMC, bestatin 500 µM, bortezomib 0",15.5±0.7 % control with no inhibitor
CC(C)C[C@H](NC(=O)[C@H](CC(C)C)NC(=O)[C@H](CC(C)C)NC(=O)OCc1ccccc1)B(O)O [MG262],effect on cleavage of Leu-AMC,[1],inhibit
same,change in levels of intracellular peptides (peptidome),HEK293T cells [4]; [8],changes that were generally similar to those caused by 500 nM bortezomib
same,effect on cleavage of Ala-AMC by purified PSAP,[2],inhibitory
same,change in levels of intracellular peptides (peptidome),SH-SY5Y cells,changes that were generally similar to those caused by 500 nM bortezomib
same,effect on cleavage of Ala-AMC,[3],inhibit
CC(C)C[C@H](NC(=O)CNC(=O)c1cc(Cl)ccc1Cl)B(O)O [MLN2238],effect on cleavage of Leu-AMC,[1],inhibit
same,change in levels of intracellular peptides (peptidome),HEK293T cells [4]; [8],the majority of peptides was greatly decreased
same,effect on cleavage of Ala-AMC by purified PSAP,[2],inhibitory
same,effect on cleavage of Ala-AMC,[3],inhibit
"CC(C)[C@H](O)[C@@]12NC(=O)[C@H](C)[C@@H]1OC2=O [clasto-Lactacystin β-lactone, reference compound]",change in levels of intracellular peptides (peptidome),HEK293T cells [4]; [8],the majority of peptides was greatly decreased
same,IC50,[5],~10 µM
"CCCCNC(=O)[C@@H]1Cc2ccccc2N1C(=O)[C@@H](N)CC [butabindide, reference compound]",change in levels of intracellular peptides (peptidome),"HEK293T cells [4]; 100 µM bestatin methyl ester 75 min, 100 µM butabindide 35 or 75 min, bestatin",failed to substantially alter the peptide levels
same,inhibition of Ala-Ala-Phe-AMC cleavage,[6],Approximately 50%
CC[C@H](C)[C@H](NC(=O)[C@H]([C@@H](C)CC)N(C)C(C)=O)C(=O)N[C@H](C(=O)N[C@@H](CC(C)C)C(=O)[C@@]1(C)CO1)[C@@H](C)O [epoxomicin],change in levels of intracellular peptides (peptidome),"HEK293T cells [7]; HEK293T cells, 0.2 µM for 1 hour",the majority of peptides was greatly decreased
same,levels of peptides arising from cleavage at beta 1 sites,HEK293T cells [7]; cells treated for 1 hour with 2 µM,greatly elevated
